Values belong to the molecule of their own block, whether it stands above or below them.
Legend:
[1] = system: CFA-induced rat inflammatory pain model; assay: CFA-induced rat inflammatory pain model, Von Frey test; assay type: in vivo, SD rats; conditions: SD rats CFA, Mean + SEM, n = 10
Procedure: Experimental Example 9: Pharmacodynamic effect study of compounds in CFA-induced rat inflammatory pain model Experimental animals: SD rats, male, 180-220 g.
(§1) Compound preparation: 5% (final preparation volume) of DMSO was added to dissolve the test compound, and then 10% (final preparation volume) of Cremophor EL and 85% Saline were sequentially added; an appropriate amount of Celecoxib was weighed, 5% (final preparation volume) of DMSO was added to dissolve the test compound, and then 5% (final preparation volume) of HS-15 and 90% Saline were sequentially added.
SD rats were anesthetized with isoflurane. The right hind paw was disinfected, a needle was inserted subcutaneously at the posterior plantar aspect, and 50 µL of complete Freund's adjuvant (CFA, 1 mg/mL) was administered via subcutaneous injection at the midplantar region, with the needle withdrawn slowly while rotating to prevent leakage. After modeling, local redness and swelling of the soles of the feet, difficulty in walking, and lifting of the affected feet were observed.
(§2) 2. Administration and test
(§3) The Von Frey test was performed once before the surgery. On the second day after animal modeling, animals meeting the baseline requirements were selected for enrollment. The animals were randomly divided into 6 groups based on the 50% PWT values, with 10 animals per group. Administration was performed under a double-blind test protocol. The 50% PWT of the animals was measured separately before administration (baseline) and at 0.5 h, 2 h, and 8 h after administration. The model control group was given normal saline, while the compound groups were given the compounds according to the administration doses in the table below.

[2] = system: acetic acid writhing model; assay: Mouse acetic acid writhing model; assay type: in vivo, ICR mice; conditions: ICR mice, Dose 50 mg/kg
Procedure: Experimental Example 11: Pharmacodynamic effect study of compounds in mouse acetic acid writhing model
Experimental animals: ICR mice, male, 20-24 g.
as §1, with “Etoricoxib” for “Celecoxib”
• 1. The mice were randomly grouped based on the body weight for model establishment, with 10 animals per group. A 0.8% (v/v) acetic acid solution was intraperitoneally injected at an injection volume of 10 mL/kg. • 2. Administration and test
Administration was performed 60 min before modeling. After the acetic acid solution was injected, the number of writhing responses in mice was observed. […] The number of writhing responses was observed and recorded during two intervals: 0-15 min and 15-30 min, with a total observation duration of 30 min. Inhibition rate = (number of writhing responses in control group - number of writhing responses in administration group)/number of writhing responses in control group × 100%. The model control group was given normal saline, the positive control group 1 was given etoricoxib at 20 mg/kg, the positive control group 2 was given VX-548 at 50 mg/kg, and the remaining groups were given the compounds of the present disclosure according to the administration doses in the table below.

formalin pain model = assay: Rat formalin pain model; assay type: in vivo, SD rats; conditions: SD rats, 125 mg/kg p.o. 120 min before 5% formalin, Mean + SD, n = 10
Procedure: Experimental Example 10: Pharmacodynamic effect study of compounds in rat formalin pain model
Experimental animals: SD rats, male, 180-200 g.
as §1, with “Etoricoxib” for “Celecoxib”, “added; the tramadol injection was diluted with normal saline to the desired concentration.” for “added.”
Each group consisted of 10 animals, and 50 µL of a 5% formalin solution was injected using a microsyringe into the right plantar region.
as §2
Based on different pharmacokinetic properties of the drugs, the administration was performed at 0 min, 60 min, and 120 min before modeling. After injection of the formalin, the number of pain responses in the rats was observed. […] Spontaneous pain responses were observed once every 5 min, and the number of pain responses in the rats within 1 min was counted, with a total observation duration of 60 min. Inhibition rate = (number of pain responses in control group - number of pain responses in administration group)/number of pain responses in control group × 100%.
Table 12. Administration information of compounds of the present disclosure in rat formalin model

incision pain model [3] = assay: Incision pain model in SD rats, Von Frey test; assay type: in vivo; conditions: SD rats, Mean + SEM, n = 10
Procedure: Experimental Example 7: Pharmacodynamic effect study of compounds in incision pain model in SD rats
Experimental animals: SD rats, male, 180-220 g.
(§4) Compound preparation: 5% (final preparation volume) of DMSO was added to dissolve the test compound, and then 10% (final preparation volume) of Cremophor EL and 85% Saline were sequentially added.
(§5) A plantar incision pain model was established in rats via surgery before the administration and test. Rats were placed in an anesthesia induction chamber and given 3%-4% isoflurane for anesthesia induction. After the anesthesia induction, a breathing mask was applied, and the isoflurane concentration was adjusted to 1%-2% to prevent the rats from suffering pain during the surgery. Each rat was placed in a supine position, and the surgical site was disinfected with alcohol and iodophor. Under sterile conditions, a 0.5 cm longitudinal incision was made on the left hind paw surface, 0.2 cm away from the heel, extending toward the toes. The skin and fascia were incised; the plantar muscle was separated, slightly lifted, and longitudinally incised. The skin was then sutured with 5-0 sutures and disinfected.
as §2
as §3, with “modeling, the test was repeated, and” for “modeling,”, “h, 4 h, 6 h, or” for “h, and”, “after administration, and a single dose was administered.” for “after administration.”

Nav1.8 channels = target: T1, Nav1.8 channels (Homo sapiens, UniProt Q9Y5Y9); assay: Manual patch-clamp, current of stably overexpressed Nav1.8 channels (resting state voltage program); assay type: cell-based
T1 construct: expressed in transfected cells
Outline: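 Whole-cell manual patch clamp on cells stably overexpressing Nav1.8, held at -120 mV and stepped to 0 mV for 50 ms every 20 s (resting-state protocol). Compounds were perfused in ascending concentrations, each for 5 min or until stable; block of peak current was calculated at steady state.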

incision pain model [4] = assay: Incision pain model in ICR mice, Von Frey test; assay type: in vivo; conditions: 50 mg/kg single dose, Mean + SEM, n = 10
incision pain model [5] = assay: Incision pain model in ICR mice, Von Frey test; assay type: in vivo; conditions: Mean + SEM, n = 10; for PWT 50% value (g) Post-surgery, Preadministration / PWT 50% value (g) Pre-surgery: 50 mg/kg group; for PWT 50% value (g) Post-surgery, Preadministration: baseline before administration; for PWT 50% value (g) Pre-surgery: baseline before surgery; for PWT 50% value (g) 0.5 h / PWT 50% value (g) 2 h / PWT 50% value (g) 4 h: 50 mg/kg single dose; for PWT 50% value (g) 0.5 h: 0.5 h after administration; for PWT 50% value (g) 2 h: 2 h after administration; for PWT 50% value (g) 4 h: 4 h after administration
Procedure: Experimental Example 6: Pharmacodynamic effect study of compounds in incision pain model in ICR mice Experimental animals: ICR mice, male, 28-35 g.
as §4
as §5, with “in mice” for “in rats”, “test. Mice” for “test. Rats”, “the mice” for “the rats”, “Each mouse” for “Each rat”
as §2
as §3, with “modeling, the test was repeated, and” for “modeling,”, “grouped” for “divided into 6 groups”, “4” for “8”, “administration, and a single dose was administered.” for “administration.”

T1 sequence (Q9Y5Y9 whole entry): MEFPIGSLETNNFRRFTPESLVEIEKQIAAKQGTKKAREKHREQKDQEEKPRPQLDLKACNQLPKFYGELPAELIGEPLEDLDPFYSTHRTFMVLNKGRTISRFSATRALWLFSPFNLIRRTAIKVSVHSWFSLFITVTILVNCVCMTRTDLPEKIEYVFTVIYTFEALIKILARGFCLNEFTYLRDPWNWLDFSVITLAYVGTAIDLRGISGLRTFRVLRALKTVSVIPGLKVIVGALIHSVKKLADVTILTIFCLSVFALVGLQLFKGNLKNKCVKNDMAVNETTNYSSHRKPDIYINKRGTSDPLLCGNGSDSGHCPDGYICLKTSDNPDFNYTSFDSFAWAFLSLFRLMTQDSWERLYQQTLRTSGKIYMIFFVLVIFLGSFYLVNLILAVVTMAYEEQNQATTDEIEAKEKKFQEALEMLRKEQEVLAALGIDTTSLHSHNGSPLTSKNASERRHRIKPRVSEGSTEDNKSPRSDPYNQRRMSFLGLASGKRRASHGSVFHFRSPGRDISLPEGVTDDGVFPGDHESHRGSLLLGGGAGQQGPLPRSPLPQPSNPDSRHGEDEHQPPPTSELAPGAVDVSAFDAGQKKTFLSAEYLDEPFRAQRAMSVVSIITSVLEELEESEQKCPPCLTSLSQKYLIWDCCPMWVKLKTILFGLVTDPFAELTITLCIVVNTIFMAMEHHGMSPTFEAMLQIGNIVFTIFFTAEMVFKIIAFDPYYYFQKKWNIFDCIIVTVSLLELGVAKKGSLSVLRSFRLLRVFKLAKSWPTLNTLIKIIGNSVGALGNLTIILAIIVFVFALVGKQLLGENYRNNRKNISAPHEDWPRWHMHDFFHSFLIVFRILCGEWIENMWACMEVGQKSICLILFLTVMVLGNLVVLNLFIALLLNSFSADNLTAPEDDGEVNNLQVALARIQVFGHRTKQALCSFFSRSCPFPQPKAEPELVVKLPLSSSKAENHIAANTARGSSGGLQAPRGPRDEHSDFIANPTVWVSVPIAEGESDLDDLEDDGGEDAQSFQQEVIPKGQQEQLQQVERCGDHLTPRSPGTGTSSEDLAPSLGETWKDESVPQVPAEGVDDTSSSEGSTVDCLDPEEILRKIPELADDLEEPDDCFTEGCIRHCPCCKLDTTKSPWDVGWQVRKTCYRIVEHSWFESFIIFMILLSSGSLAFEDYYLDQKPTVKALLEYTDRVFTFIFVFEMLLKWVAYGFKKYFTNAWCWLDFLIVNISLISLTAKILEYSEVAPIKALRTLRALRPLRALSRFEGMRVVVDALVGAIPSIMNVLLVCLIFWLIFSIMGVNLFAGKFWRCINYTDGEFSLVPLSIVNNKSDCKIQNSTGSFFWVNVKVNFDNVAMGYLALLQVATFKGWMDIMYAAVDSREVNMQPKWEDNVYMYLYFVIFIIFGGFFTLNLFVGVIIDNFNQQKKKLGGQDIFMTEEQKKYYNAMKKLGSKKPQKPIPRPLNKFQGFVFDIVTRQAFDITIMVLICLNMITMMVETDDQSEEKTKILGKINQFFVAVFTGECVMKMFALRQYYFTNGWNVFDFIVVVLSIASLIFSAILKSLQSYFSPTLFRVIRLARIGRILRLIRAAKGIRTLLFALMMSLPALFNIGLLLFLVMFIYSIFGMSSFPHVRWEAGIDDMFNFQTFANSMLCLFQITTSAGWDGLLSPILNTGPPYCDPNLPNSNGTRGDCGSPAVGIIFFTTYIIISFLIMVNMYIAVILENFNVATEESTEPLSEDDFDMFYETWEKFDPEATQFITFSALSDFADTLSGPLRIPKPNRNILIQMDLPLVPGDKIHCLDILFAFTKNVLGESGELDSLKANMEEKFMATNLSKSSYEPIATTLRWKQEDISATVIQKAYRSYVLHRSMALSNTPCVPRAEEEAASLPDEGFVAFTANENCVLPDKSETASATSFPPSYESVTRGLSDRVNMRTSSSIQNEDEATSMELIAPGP

SMILES: Cc1ccc(-c2cc(C(F)(F)F)nn2-c2ccc(S(N)(=O)=O)cc2)cc1 [Celecoxib, reference compound]
PWT 50% value (g) Post-surgery, Preadministration ([1]; 80 mg/kg group, baseline before administration): 3.12 ± 1.14 g
PWT 50% value (g) Pre-surgery ([1]; 80 mg/kg group, baseline before modeling): 11.74 ± 2.33 g
PWT 50% value (g) Time 0.5 h ([1]; 80 mg/kg, 0.5 h after administration): 5.91 ± 4.09 g
PWT 50% value (g) Time 2 h ([1]; 80 mg/kg, 2 h after administration): 4.66 ± 1.69 g
PWT 50% value (g) Time 8 h ([1]; 80 mg/kg, 8 h after administration): 3.4 ± 1.38 g
PWT 50% value (g) AUC0-8h ([1]; 80 mg/kg): 40.7 ± 15.63 g

SMILES: COc1c([C@H]2[C@H](C(=O)Nc3ccnc(C(N)=O)c3)O[C@@](C)(C(F)(F)F)[C@H]2C)ccc(F)c1F [VX-548, reference compound]
Number of writhing responses ([2]; 60 min before 0.8% acetic acid i.p., 30 min observation, Mean + SD, n = 10): 29±16
Inhibition rate (%) ([2]; inhibition of writhing responses vs control group): 41.24%
Number of pain responses 0 min (formalin pain model; 0 min): 24.3±8.5
Number of pain responses 10 min (formalin pain model; 10 min): 2.4±2.8
Number of pain responses 15 min (formalin pain model; 15 min): 8.8±6.4
Number of pain responses 30 min (formalin pain model; 30 min): 13.2±6.3
Number of pain responses 40 min (formalin pain model; 40 min): 10.1±6.9
Number of pain responses 50 min (formalin pain model; 50 min): 4.1±4.7
Number of pain responses 60 min (formalin pain model; 60 min): 4.7±5.6
PWT 50% value (g) Post-surgery, Preadministration (incision pain model [3]; 125 mg/kg group, baseline before administration): 3.95 ± 1.19 g
PWT 50% value (g) Pre-surgery (incision pain model [3]; 125 mg/kg group, baseline before surgery): 14.09 ± 1.46 g
PWT 50% value (g) Time 0.5 h (incision pain model [3]; 125 mg/kg single dose, 0.5 h after administration): 7.61 ± 5.9 g
PWT 50% value (g) Time 2 h (incision pain model [3]; 125 mg/kg single dose, 2 h after administration): 8.97 ± 3.33 g
PWT 50% value (g) Time 6 h (incision pain model [3]; 125 mg/kg single dose, 6 h after administration): 6.27 ± 2.34 g
PWT 50% value (g) Time 8 h (incision pain model [3]; 125 mg/kg single dose, 8 h after administration): 5.89 ± 2.07 g
PWT 50% value (g) AUC0-8h (incision pain model [3]; 125 mg/kg single dose): 58.66 ± 10.33 g

SMILES: COc1c([C@@H]2C[C@](C)(C(F)(F)F)S[C@H]2C(=O)Nc2ccc(NS(N)(=O)=O)c(F)c2)ccc(F)c1F [a-19-A, (2R,3S,5R)-3-(3,4-difluoro-2-methoxyphenyl)-N-[3-fluoro-4-(sulfamoylamino)phenyl]-5-methyl-5-(trifluoromethyl)thiolane-2-carboxamide]
IC50 (Nav1.8 channels): 0.34 nM
PWT 50% value (g) AUC0-8h (incision pain model [4]): 3.04 ± 0.83 g·h
PWT 50% value (g) Post-surgery, Preadministration (incision pain model [5]): 0.29 ± 0.13 g
PWT 50% value (g) Pre-surgery (incision pain model [5]): 1.33 ± 0.46 g
PWT 50% value (g) 0.5 h (incision pain model [5]): 0.47 ± 0.22 g
PWT 50% value (g) 2 h (incision pain model [5]): 0.51 ± 0.29 g
PWT 50% value (g) 4 h (incision pain model [5]): 0.44 ± 0.18 g

Now from value to molecule, other results behind:

IC50 (Nav1.8 channels): 0.04 nM
SMILES: COc1c([C@@H]2C[C@](C)(C(F)(F)F)S[C@H]2C(=O)Nc2ccnc(NC#N)c2)ccc(F)c1F [a-34-A, (2R,3S,5R)-N-(2-cyanoaminopyridin-4-yl)-3-(3,4-difluoro-2-methoxyphenyl)-5-methyl-5-(trifluoromethyl)tetrahydrothiophene-2-carboxamide]
PWT 50% value (g) AUC0-8h (incision pain model [4]): 2.81 ± 0.57 g·h
PWT 50% value (g) Post-surgery, Preadministration (incision pain model [5]): 0.24 ± 0.03 g
PWT 50% value (g) Pre-surgery (incision pain model [5]): 1.41 ± 0.33 g
PWT 50% value (g) 0.5 h (incision pain model [5]): 0.32 ± 0.15 g
PWT 50% value (g) 2 h (incision pain model [5]): 0.51 ± 0.15 g
PWT 50% value (g) 4 h (incision pain model [5]): 0.35 ± 0.16 g

IC50 (Nav1.8 channels): 0.023 nM
SMILES: CO/N=C(\N)c1cc(NC(=O)[C@@H]2S[C@@](C)(C(F)(F)F)C[C@H]2c2ccc(F)c(F)c2OC)ccn1 [a-57-A]
PWT 50% value (g) AUC0-8h (incision pain model [4]): 4.4 ± 0.41 g·h
PWT 50% value (g) Post-surgery, Preadministration (incision pain model [5]): 0.22 ± 0.02 g
PWT 50% value (g) Pre-surgery (incision pain model [5]): 1.29 ± 0.22 g
PWT 50% value (g) 0.5 h (incision pain model [5]): 0.43 ± 0.18 g
PWT 50% value (g) 2 h (incision pain model [5]): 0.38 ± 0.14 g
PWT 50% value (g) 4 h (incision pain model [5]): 0.29 ± 0.11 g
